Values quoted from earlier work as cited in patent US6355677B1, “Adrenoleukodystrophy treatments and drug screening” (The Johns Hopkins University, priority 1998, dated 2002).

Key:
[1] = in rats; cited from earlier work
[2] = active ingredient of Lorenzo oil; cited from earlier work

SMILES | Blood-brain barrier passage [1] | Brain entry [2]
O=C(O)Cc1ccccc1 [phenylacetate] | can cross the blood-brain barrier | 
CCCCCCCC/C=C\CCCCCCCCCCCC(=O)O [erucic acid] |  | does not get into the brain
